{
  "source": "patent US20210244791A1",
  "about": "“APPLICATION OF PEDF-DERIVED SHORT PEPTIDES IN TENDON HEALING” (BRIM Biotechnology, Inc., priority 2018, published 2021)",
  "key": {"[1]": {"system": "tendon rupture", "conditions": "rat model; previous study; cited from earlier work"}, "[2]": {"system": "cultured tendon stem/progenitor cells (TSPC)", "conditions": "peptide added in culture medium; previous study; cited from earlier work"}, "[3]": {"system": "cyclin D1", "assay": "Western blot analysis of cyclin D1 expression in TSPC", "assay_type": "cell-based, rabbit", "conditions": "TSPC treated 24 h; compared with solvent-treated cells; normalized to β-actin", "description": "Primary rabbit TSPC were treated with 10NM 29-mer or its variants for 24 h. Representative blots (A) and densitometric analysis with the SD (B) from three independent experiments are shown. Cyclin D1 expression was normalized to ([…]. *P<0.01 vs. solvent-treated cells. ^#P<0.05 vs. 29-mer-treated cells.\n(§1) Achilles tendons from New Zealand White rabbits (6-8 months old, 3.0-4.0 kg) were used in this study. Achilles tendons were washed two times with sterile phosphate-buffered saline (PBS) containing 50 μg/ml gentamicin. The tendon and tendon sheath were cut into small pieces (1-2 mm^3). Each 100 mg of fragment was then digested in a solution containing 3 mg/ml of type I collagenase and 4 mg/ml of dispase in 1 ml balance salt solution (BSS; Alcone) at 37° C. for 4 hours. The digested tissues were washed three times with PBS and collected by centrifugation (800 g for 10 min). The digested tissues were placed in tissue-culture plates (Falcon Labware; NJ, USA) and resuspended in high-glucose DMEM supplemented with 10% FBS and 50 μg/ml gentamycin, and maintained at 37° C. with 5% CO2. After 5 days, the medium was changed to remove the loosened tissue residues. Subsequently, tendon cells were incubated with 10% FBS medium for 2 days, and then cultured with a basal medium (2% FBS, 1% ITSE, 300 μg/ml L-glutamine, 1% antibiotic-antimicotic solutions) for further 10 days. Culture medium was changed every 3 days. For passage, tendon cells were harvested with 0.25% trypsin/EDTA, cell counting by haemocytometer, approximately 5×10^3 cells were seeded in each well of a 96-well cell culture plate or 2×10^5 cells were seeded in each well of a 6-well cell culture plate for 24 h. These expanded tendon cells were then treated with 10 μM 29-mer or its variants in fresh basal medium for further 24 h and subjected to cell proliferation assay and western blot analysis, respectively.\nCell lysis, SDS-PAGE, and antibodies used for immunoblotting were performed as described (Ho et al., 15-deoxy-Delta(12,14)-prostaglandin J2 induces vascular endothelial cell apoptosis through the sequential activation of MAPKS and p53. J Biol. Chem., 2008; 283(44): 30273-30288). The band intensity in immunoblot was evaluated with a Model GS-700 imaging densitometer (Bio-Rad Laboratories, Hercules, Calif.) and analyzed using Labworks 4.0 software.\nHowever, the 29-mer effect on cyclin D1 protein induction was almost abolished by alanine/glycine replacement at residue S93, A96, Q98, 1103, 1104 and R106, respectively (1.3±0.1, 1.5±0.3, 1.3±0.1, 0.9±0.1, 1.3±0.2, and 1.0±0.3). […] The data also imply that the PDSP at positions Ser93, Ala96, Gln98, Ile103, Ile104, and Arg106 are important for sustaining the PDSP effect on induction of TSPC proliferation."}, "[4]": {"system": "CD146-positive TSPC", "assay": "CD146 immunostaining of TSPC in injured Achilles tendon", "assay_type": "in vivo, rat", "conditions": "1 week after wounding; peptide/alginate gel; vehicle/alginate 38.3±7.8", "description": "(A) Representative CD146-stained longitudinal sections. (Original magnification×200). (B) The number of CD146-positive TSPC per 200×field of view on injured tendon sections. Data are reported as mean±SE. Total CD146^+ cells were evaluated from 6 sections/tendon specimen, with 3 rats in each group. *P<0.001 versus vehicle/alginate-treated tendon; #p <0.001 versus 29-mer/alginate-treated tendon.\nTo investigate the effects of the 29-mer peptide on tendon healing, a rat model of Achilles tendon injury was established as reported by Orhan et al. (The effect of extracorporeal shock waves on a rat model of injury to tendon Achilles. A histological and biomechanical study. J. Bone Joint Surg. Br. 2004;.86(4):.613-618). Adult 10-week-old male Sprague-Dawley rats (initial body weight=312±11 g) were anesthetized by an intraperitoneal injection of xylazine (10 mg/kg). Then, the left tendo Achilles injury was created by full-thickness insertion of an 18-G needle through tendo Achilles 1 cm proximal to the calcaneum attachment site. This created a horizontal wound that was flanked by intact tendon tissue to prevent the retraction of severed ends. […]\nCD146 is one of the TSPC markers. […] To test the mechanism of the 29-mer-induced tendon repair, CD146 immunostaining of TSPC located at injured tendon was measured, at 1 week after wounding. […]"}, "[5]": {"system": "Primary rabbit TSPC", "assay": "TSPC cell proliferation assay (fluorometric kit)", "assay_type": "cell-based", "conditions": "10 μM peptide, low serum media, PDSP solvent (DMSO) set as 100%, mean±SE of three experiments", "description": "Primary rabbit TSPC were cultured to near-confluence in a 75T cell culture flask and then verified by immunostaining of a TSPC marker, nucleostemin (>98%; green color). Nuclei were stained with Hoechst 33258 (blue color) and visualized by an epifluorescence microscopy. The nucleostemine-positive TSPC were treated with 10 μM 29-mer or its variants for 24 h. The numbers of TSPC after 24-h expansion were detected with a cell proliferation assay kit (BioVision; catalog number: K307). The TSPC treated with PDSP solvent was set as 100%. Results are expressed as mean±SE of three independent experiments.\nas §1\nCell Proliferation Assay Kit (Fluorometric) was purchased from BioVision (Catalog #: K307) and used to evaluate cell proliferation according to the manufacturer's recommendations. The fluorescence was read at 480 nm for excitation and 538 nm for emission on a SPECTRAmax GEMINI XS fluorescence microplate spectrophotometer (Molecular Devices, Sunnyvale, Calif., USA).\nRabbit TSPC isolation was described above. TSPC in low serum media were treated with 10 μM of one of the 29-mer variants for 24 h. Cell proliferation was examined by a cell proliferation kit based on a kit provided nuclear dye that specifically binds to nucleic acid in the cell and generates green fluorescence."}},
  "data": [
    {"sequence": "SLGAEQRTESIIHRALYYDLISSPDIHGT (listed as Homo sapiens) [29-mer, PEDF-derived short peptide, human PEDF residues 93-121]", "values": [
      {"measurement": "healing of tendon rupture", "setting": "[1]", "result": "facilitated healing of tendon rupture"},
      {"measurement": "induction of cultured TSPC proliferation", "setting": "[2]", "result": "able to induce cultured tendon stem/progenitor cells (TSPC) proliferation"},
      {"measurement": "induction of the cyclin D1 protein", "setting": "[3]", "result": "2.9±0.5", "unit": "fold"},
      {"measurement": "number of CD146-positive TSPC on injured tendon sections", "setting": "[4]", "result": "86.8±6.0", "unit": "cells per 200× field"},
      {"measurement": "TSPC proliferation (numbers of TSPC after 24-h expansion)", "setting": "[5]", "result": "135±6.1", "unit": "%"}
    ]}
  ]
}
